Laboratory results from patent US6207172A, “Composition for the delivery of a pharmaceutical agent to a patient” (Warner-Lambert Company, priority 1998, dated 2001).
Like-named read-outs stand apart in the source and are kept apart here.

How the values were obtained:
[1] = Oral pharmacokinetics in fasted male Wistar rats; assay type: in vivo; conditions: for AUC(0-t) at 8 h / Cmax: rat, blood, po, 10 mg/kg, fasted male Wistar rats
Procedure: Single, 10-mg/kg oral gavage doses of the Butyl-[2,5-dimethyl-7-(2,4,6-trimethyl-phenyl)-7H-pyrrolo[2,3-d]pyrimidin- 4-yl]-ethyl-amine PEG/PVP formulation were given to 3 fasted male Wistar rats. In parallel, single, 10-mg/kg oral gavage doses of Butyl-[2,5-dimethyl-7-(2,4,6-trimethyl-phenyl)-7H-pyrrolo[2,3-d]pyrimidin- 4-yl]-ethyl-amine, as an aqueous suspension in 0.1% Tween 80, were administered to 3 additional fasted male Wistar rats. Blood samples were serially drawn over the 24-hour period following administration and assayed for Butyl-[2,5-dimethyl-7-(2,4,6-trimethyl-phenyl)-7H-pyrrolo[2,3-d]pyrimidin- 4-yl]-ethyl-amine concentrations.

[2] = Mean particle size of the PEG/PVP formulation after filtration; assay type: physicochemical; conditions: diameter; PEG 3350/10% PVP pH 7.4 phosphate buffer formulation, filtered through 0.45 μm PTFE filter
Procedure: After formation of the composition for delivering a pharmaceutical agent to a patient, the composition has been successfully extruded through both 0.45 and […] nylon filters, yielding a particle size of around 500 or 300 nm, respectively. In addition, the compositions can be autoclaved. The compositions have also been freeze dried and can be reconstituted by the addition of water or a buffer.
To the melted phase were then added 3 mL of 10% PVP in pH 7.4 phosphate buffer with stirring. The mixture was stirred during cool-down to room temperature. Before administration, the formulation was filtered through a 0.45 μm PTFE filter. […] The final concentration was calculated to be 10 mg/mL.
Butyl-[2,5-dimethyl-7-(2,4,6-trimethyl-phenyl)-7H-pyrrolo[2,3-d]pyrimidin-4-yl]-ethyl-amine (CRF-1 receptor antagonist) was formulated in the PEG/PVP system as follows. Thirty milligrams of Butyl-[2,5-dimethyl-7-(2,4,6-trimethyl-phenyl)-7H-pyrrolo[2,3-d]pyrimidin- 4-yl]-ethyl-amine were dissolved in 1.5 g of molten (65° C.) PEG 3350. To the melted phase were then added 1.5 mL of 10% PVP in pH 7.4 phosphate buffer with stirring. The mixture was stirred during cool-down to room temperature. Before administration, the formulation was filtered through a 0.45 μm PTFE filter. […] The final concentration was calculated to be 10 mg/mL.

tumor-bearing mice [3] = test: Deaths of tumor-bearing mice during 10 days oral gavage dosing; assay type: in vivo; conditions: 3 mice
Source text: (§1) Single, 200-mg/kg daily oral gavage doses of the PEG/PVP formulation were given to 3 tumor-bearing mice for 10 days.

tumor-bearing mice [4] = test: Tumor growth inhibition in tumor-bearing mice (change in tumor size from Day 1); assay type: in vivo; conditions: PEG/PVP 200 mg/kg daily vs DMA/lactate 400 mg/kg (200 mg/kg twice daily), oral gavage, 10 days
Source text: as §1

[5] = PEG/PVP emulsion vs 0.1% Tween 80 suspension, 10 mg/kg oral

AUC(0-t) at 8 h ([1]; PEG/PVP emulsion, 10 mg/kg single oral gavage, read-out: AUC(0-8), PEG/PVP-dosed rats) [ng·h/mL] | Cmax ([1]; PEG/PVP emulsion, 10 mg/kg single oral gavage, read-out: Mean Cmax, PEG/PVP emulsion group) [ng/mL] | AUC(0-t) at 8 h ([1]; aqueous suspension in 0.1% Tween 80, 10 mg/kg single oral gavage, read-out: AUC(0-8), suspension-dosed) [ng·h/mL] | Cmax ([1]; aqueous suspension in 0.1% Tween 80, 10 mg/kg single oral gavage, read-out: Mean Cmax, 0.1% Tween group) [ng/mL] | SMILES | AUC(0-8), difference between the 2 dose groups [1, 5] | Cmax, difference between the 2 dose groups [1, 5] | half-life, difference between the 2 dose groups [1, 5] | Mean particle size [2] | mice that died, DMA/lactate system (tumor-bearing mice [3]; DMA/lactate, 400 mg/kg (200 mg/kg oral gavage twice daily)) | mice that died, PEG/PVP preparation (tumor-bearing mice [3]; PEG/PVP, 200 mg/kg daily oral gavage) | Tumor growth inhibition, ratio PEG/PVP emulsion to DMA/lactate preparation (tumor-bearing mice [4]) [fold]
283 | 283 | 267 | 267 | CCCCN(CC)c1nc(C)nc2c1c(C)cn2-c1c(C)cc(C)cc1C [Butyl-[2,5-dimethyl-7-(2,4,6-trimethyl-phenyl)-7H-pyrrolo[2,3-d]pyrimidin-4-yl]-ethyl-amine] | Neither Cmax, AUC(0-8), nor half-life differed significantly between the 2 dose groups | Neither Cmax, AUC(0-8), nor half-life differed significantly between the 2 dose groups | Neither Cmax, AUC(0-8), nor half-life differed significantly between the 2 dose groups | approximately 420 nm |  |  | 
 |  |  |  | CNc1cc2c(Nc3cccc(Br)c3)ncnc2cn1 [N^4-(3-Bromo-phenyl)-N^6-methyl-pyrido[3,4-d]pyrimidine-4,6-diamine] |  |  |  | approximately 400 nm | all 3 mice dosed with the DMA/lactate system died | None of the mice given the PEG/PVP preparation died | 4
